Target: T1, PD-1/PD-L1 (Homo sapiens, UniProt Q9NZQ7)
T1 construct: TVMV protease site linker (C); made in house; host or cells: HEK293T cells
Test: PD-1/PD-L1 Homogenous Time-Resolved Fluorescence (HTRF) binding assay
Conditions: PD-L1-His (10 nM) pre-incubated with inhibitor 15 m, then PD-1-Ig (20 nM)
Description: Methods for Testing the Ability of Macrocyclic Peptides to Compete for the Binding of PD-1 to PD-L1 Using Homogenous Time-Resolved Fluorescence (HTRF) Binding Assays
The ability of the compounds of formula (I) to bind to PD-L1 was investigated using a PD-1/PD-L1 Homogenous Time-Resolved Fluorescence (HTRF) binding assay.
Homogenous Time-Resolved Fluorescence (HTRF) Binding Assay
The interaction of PD-1 and PD-L1 can be assessed using soluble, purified preparations of the extracellular domains of the two proteins. The PD-1 and PD-L1 protein extracellular domains were expressed as fusion proteins with detection tags, for PD-1, the tag was the Fc portion of Immunoglobulin (PD-1-Ig) and for PD-L1 it was the 6 histidine motif (PD-L1-His). All binding studies were performed in an HTRF assay buffer consisting of dPBS supplemented with 0.1% […] bovine serum albumin and 0.05% (v/v) Tween-20. […] HTRF detection was achieved using europium crypate-labeled anti-Ig (1 nM final) and allophycocyanin (APC) labeled anti-His (20 nM final). Antibodies were diluted in HTRF detection buffer and 5 μl was dispensed on top of the binding reaction. The reaction mixture was allowed to equilibrate for 30 minutes and the resulting signal (665 nm/620 nm ratio) was obtained using an EnVision fluorometer. Additional binding assays were established between the human proteins PD-1-Ig/PD-L2-His (20 & 5 nM, respectively) and CD80-His/PD-L1-Ig (100 & 10 nM, respectively).
Recombinant Proteins: Human PD-1 (25-167) with a C-terminal human Fc domain of immunoglobulin G (Ig) epitope tag [hPD-1 (25-167)-3S-IG] and human PD-L1 (18-239) with a C-terminal His epitope tag [hPD-L1(18-239)-TVMV-His] were expressed in HEK293T cells and purified sequentially by ProteinA affinity chromatography and size exclusion chromatography. Human PD-L2-His and CD80-His was obtained through commercial sources.
Table 1 lists the IC50 values for representative examples of this disclosure measured in the PD-1/PD-L1 Homogenous Time-Resolved Fluorescence (HTRF) binding assay.

T1 sequence (Q9NZQ7 18-239): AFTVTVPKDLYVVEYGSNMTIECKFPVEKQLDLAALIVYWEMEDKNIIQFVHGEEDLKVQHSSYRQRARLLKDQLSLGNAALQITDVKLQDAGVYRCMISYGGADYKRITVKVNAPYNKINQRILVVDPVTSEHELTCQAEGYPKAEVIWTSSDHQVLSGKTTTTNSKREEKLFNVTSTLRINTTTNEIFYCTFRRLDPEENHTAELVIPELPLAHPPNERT

CCCC[C@H]1C(=O)N(C)[C@@H](CCCC)C(=O)N[C@@H](CC(C)C)C(=O)N[C@H](C(=O)NCC(=O)N[C@@H](Cc2cn(CCOCCOCCOCCOCCOCCOCCOCCOCCOCCOCCOCCNC(=O)CC[C@H](NC(=O)CCCCCCCCCCCCCCCCC(=O)O)C(=O)O)nn2)C(=O)OC)CSCC(=O)N[C@@H](Cc2ccc(O)cc2)C(=O)N(C)[C@@H](C)C(=O)N[C@@H](CC(N)=O)C(=O)N2CCC[C@H]2C(=O)N[C@@H](CN)C(=O)N[C@@H](CC(C)C)C(=O)N2C[C@H](O)C[C@H]2C(=O)N[C@@H](Cc2c[nH]c3ccccc23)C(=O)N[C@@H](CCN)C(=O)N[C@@H](Cc2cn(CC(=O)OC)c3ccccc23)C(=O)N1C [Example 3001] was tested, and the IC50 was 10 nM.

CCCC[C@H]1C(=O)N(C)[C@@H](CCCC)C(=O)N[C@@H](CC(C)C)C(=O)N[C@H](C(=O)NCC(=O)N[C@@H](Cc2cn(CCOCCOCCOCCOCCOCCOCCOCCOCCOCCOCCOCCNC(=O)CC[C@H](NC(=O)CCCCCCCCCCCCCCCCC(=O)O)C(=O)O)nn2)C(=O)OC)CSCC(=O)N[C@@H](Cc2ccc(O)cc2)C(=O)N(C)[C@@H](C)C(=O)N[C@@H](CC(N)=O)C(=O)N2CCC[C@H]2C(=O)N[C@@H](CN)C(=O)N[C@@H](CC(C)C)C(=O)N2C[C@H](O)C[C@H]2C(=O)N[C@@H](Cc2c[nH]c3ccccc23)C(=O)N[C@@H](CCN)C(=O)N[C@@H](Cc2cn(CC(=O)OC)c3ccccc23)C(=O)N1C [Example 3002] gave an IC50 of 12 nM.

CCCC[C@H]1C(=O)N(C)[C@@H](CCCC)C(=O)N[C@@H](CC(C)C)C(=O)N[C@H](C(=O)NCC(=O)N[C@@H](Cc2cn(CCOCCOCCOCCOCCOCCOCCOCCOCCOCCOCCOCCNC(=O)CC[C@H](NC(=O)CCCCCCCCCCCCCCCCC(=O)O)C(=O)OC)nn2)C(=O)O)CSCC(=O)N[C@@H](Cc2ccc(O)cc2)C(=O)N(C)[C@@H](C)C(=O)N[C@@H](CC(N)=O)C(=O)N2CCC[C@H]2C(=O)N[C@@H](CN)C(=O)N[C@@H](CC(C)C)C(=O)N2C[C@H](O)C[C@H]2C(=O)N[C@@H](Cc2c[nH]c3ccccc23)C(=O)N[C@@H](CCN)C(=O)N[C@@H](Cc2cn(CC(=O)OC)c3ccccc23)C(=O)N1C [Example 3003] gave an IC50 of 9.3 nM.

In the case of CCCC[C@H]1C(=O)N(C)[C@@H](CCCC)C(=O)N[C@@H](CC(C)C)C(=O)N[C@H](C(=O)NCC(=O)N[C@@H](Cc2cn(CCOCCOCCOCCOCCOCCOCCOCCOCCOCCOCCOCCNC(=O)CC[C@H](NC(=O)CCCCCCCCCCCCCCCCC(=O)O)C(=O)OC)nn2)C(=O)OC)CSCC(=O)N[C@@H](Cc2ccc(O)cc2)C(=O)N(C)[C@@H](C)C(=O)N[C@@H](CC(N)=O)C(=O)N2CCC[C@H]2C(=O)N[C@@H](CN)C(=O)N[C@@H](CC(C)C)C(=O)N2C[C@H](O)C[C@H]2C(=O)N[C@@H](Cc2c[nH]c3ccccc23)C(=O)N[C@@H](CCN)C(=O)N[C@@H](Cc2cn(CC(=O)OC)c3ccccc23)C(=O)N1C [Example 3004], the IC50 is reported as 21 nM.

For CCCC[C@H]1C(=O)N(C)[C@@H](CCCC)C(=O)N[C@@H](CC(C)C)C(=O)N[C@H](C(=O)NCC(=O)N[C@@H](Cc2cn(CCOCCOCCOCCOCCOCCOCCOCCOCCOCCOCCOCCNC(=O)CC[C@H](NC(=O)CCCCCCCCCCCCCCCCC(=O)O)C(=O)O)nn2)C(=O)O)CSCC(=O)N[C@@H](Cc2ccc(O)cc2)C(=O)N(C)[C@@H](C)C(=O)N[C@@H](CC(N)=O)C(=O)N2CCC[C@H]2C(=O)N[C@@H](CN)C(=O)N[C@@H](CC(C)C)C(=O)N2C[C@H](O)C[C@H]2C(=O)N[C@@H](Cc2c[nH]c3ccccc23)C(=O)N[C@@H](CCNC(=O)OC)C(=O)N[C@@H](Cc2cn(CC(=O)O)c3ccccc23)C(=O)N1C [Example 5001], the IC50 was 0.58 nM.

Compound CCCC[C@H]1C(=O)N(C)[C@@H](CCCC)C(=O)N[C@@H](CC(C)C)C(=O)N[C@H](C(=O)NCC(=O)N[C@@H](Cc2cn(CCOCCOCCOCCOCCOCCOCCOCCOCCOCCOCCOCCNC(=O)CC[C@H](NC(=O)CCCCCCCCCCCCCCCCC(=O)O)C(=O)O)nn2)C(=O)OC)CSCC(=O)N[C@@H](Cc2ccc(O)cc2)C(=O)N(C)[C@@H](C)C(=O)N[C@@H](CC(N)=O)C(=O)N2CCC[C@H]2C(=O)N[C@@H](CN)C(=O)N[C@@H](CC(C)C)C(=O)N2C[C@H](O)C[C@H]2C(=O)N[C@@H](Cc2c[nH]c3ccccc23)C(=O)N[C@@H](CCN)C(=O)N[C@@H](Cc2cn(CC(=O)O)c3ccccc23)C(=O)N1C [Example 6003] has an IC50 of 5.5 nM.

In the case of CCCC[C@H]1C(=O)N(C)[C@@H](CCCC)C(=O)N[C@@H](CC(C)C)C(=O)N[C@H](C(=O)NCC(=O)N[C@@H](Cc2cn(CCOCCOCCOCCOCCOCCOCCOCCOCCOCCOCCOCCNC(=O)CC[C@H](NC(=O)CCCCCCCCCCCCCCCCC(=O)OC)C(=O)O)nn2)C(=O)O)CSCC(=O)N[C@@H](Cc2ccc(O)cc2)C(=O)N(C)[C@@H](C)C(=O)N[C@@H](CC(N)=O)C(=O)N2CCC[C@H]2C(=O)N[C@@H](CNC(=O)OCC)C(=O)N[C@@H](CC(C)C)C(=O)N2C[C@H](O)C[C@H]2C(=O)N[C@@H](Cc2c[nH]c3ccccc23)C(=O)N[C@@H](CCN)C(=O)N[C@@H](Cc2cn(CC(=O)O)c3ccccc23)C(=O)N1C [Example 7001], the IC50 is reported as 53 nM.

For CCCC[C@H]1C(=O)N(C)[C@@H](CCCC)C(=O)N[C@@H](CC(C)C)C(=O)N[C@H](C(=O)NCC(=O)N[C@@H](Cc2cn(CCOCCOCCOCCOCCOCCOCCOCCOCCOCCOCCOCCNC(=O)CC[C@H](NC(=O)CCCCCCCCCCCCCCCCC(=O)OC)C(=O)O)nn2)C(=O)O)CSCC(=O)N[C@@H](Cc2ccc(O)cc2)C(=O)N(C)[C@@H](C)C(=O)N[C@@H](CC(N)=O)C(=O)N2CCC[C@H]2C(=O)N[C@@H](CNC(=O)OCc2oc(=O)oc2C)C(=O)N[C@@H](CC(C)C)C(=O)N2C[C@H](O)C[C@H]2C(=O)N[C@@H](Cc2c[nH]c3ccccc23)C(=O)N[C@@H](CCN)C(=O)N[C@@H](Cc2cn(CC(=O)O)c3ccccc23)C(=O)N1C [Example 7003], the IC50 was 7.4 nM.

CCCC[C@H]1C(=O)N(C)[C@@H](CCCC)C(=O)N[C@@H](CC(C)C)C(=O)N[C@H](C(=O)NCC(=O)N[C@@H](Cc2cn(CCOCCOCCOCCOCCOCCOCCOCCOCCOCCOCCOCCNC(=O)CC[C@H](NC(=O)CCCCCCCCCCCCCCCCC(=O)OC)C(=O)OC)nn2)C(=O)O)CSCC(=O)N[C@@H](Cc2ccc(O)cc2)C(=O)N(C)[C@@H](C)C(=O)N[C@@H](CC(N)=O)C(=O)N2CCC[C@H]2C(=O)N[C@@H](CNC(=O)OCc2oc(=O)oc2C)C(=O)N[C@@H](CC(C)C)C(=O)N2C[C@H](O)C[C@H]2C(=O)N[C@@H](Cc2c[nH]c3ccccc23)C(=O)N[C@@H](CCN)C(=O)N[C@@H](Cc2cn(CC(=O)O)c3ccccc23)C(=O)N1C [Example 7004] was tested, and the IC50 was 6.9 nM.

With CCCC[C@H]1C(=O)N(C)[C@@H](CCCC)C(=O)N[C@@H](CC(C)C)C(=O)N[C@H](C(=O)NCC(=O)N[C@@H](Cc2cn(CCOCCOCCOCCOCCOCCOCCOCCOCCOCCOCCOCCNC(=O)CC[C@H](NC(=O)CCCCCCCCCCCCCCCCC(=O)O)C(=O)O)nn2)C(=O)O)CSCC(=O)N[C@@H](Cc2ccc(O)cc2)C(=O)N(C)[C@@H](C)C(=O)N[C@@H](CC(N)=O)C(=O)N2CCC[C@H]2C(=O)N[C@@H](CNC(=O)OC)C(=O)N[C@@H](CC(C)C)C(=O)N2C[C@H](O)C[C@H]2C(=O)N[C@@H](Cc2c[nH]c3ccccc23)C(=O)N[C@@H](CCNC(=O)OCc2oc(=O)oc2C)C(=O)N[C@@H](Cc2cn(CC(=O)O)c3ccccc23)C(=O)N1C [Example 7005] the IC50 was 12 nM.

CCCC[C@H]1C(=O)N(C)[C@@H](CCCC)C(=O)N[C@@H](CC(C)C)C(=O)N[C@H](C(=O)NCC(=O)N[C@@H](Cc2cn(CCOCCOCCOCCOCCOCCOCCOCCOCCOCCOCCOCCNC(=O)CC[C@H](NC(=O)CCCCCCCCCCCCCCCCC(=O)O)C(=O)O)nn2)C(=O)O)CSCC(=O)N[C@@H](Cc2ccc(O)cc2)C(=O)N(C)[C@@H](C)C(=O)N[C@@H](CC(N)=O)C(=O)N2CCC[C@H]2C(=O)N[C@@H](CNC(=O)OCc2oc(=O)oc2C)C(=O)N[C@@H](CC(C)C)C(=O)N2C[C@H](O)C[C@H]2C(=O)N[C@@H](Cc2c[nH]c3ccccc23)C(=O)N[C@@H](CCNC(=O)OC)C(=O)N[C@@H](Cc2cn(CC(=O)O)c3ccccc23)C(=O)N1C [Example 7006] was tested, and the IC50 was 43 nM.

CCCC[C@H]1C(=O)N(C)[C@@H](CCCC)C(=O)N[C@@H](CC(C)C)C(=O)N[C@H](C(=O)NCC(=O)N[C@@H](Cc2cn(CCOCCOCCOCCOCCOCCOCCOCCOCCOCCOCCOCCNC(=O)CC[C@H](NC(=O)CCCCCCCCCCCCCCCCC(=O)O)C(=O)O)nn2)C(=O)O)CSCC(=O)N[C@@H](Cc2ccc(O)cc2)C(=O)N(C)[C@@H](C)C(=O)N[C@@H](CC(N)=O)C(=O)N2CCC[C@H]2C(=O)N[C@@H](CNC(=O)OCc2oc(=O)oc2C)C(=O)N[C@@H](CC(C)C)C(=O)N2C[C@H](O)C[C@H]2C(=O)N[C@@H](Cc2c[nH]c3ccccc23)C(=O)N[C@@H](CCNC(=O)OCC)C(=O)N[C@@H](Cc2cn(CC(=O)O)c3ccccc23)C(=O)N1C [Example 7010] was tested, and the IC50 was 46 nM.

— patent publication US20240261367A1, “CYCLIC PEPTIDE IMMUNOMODULATORS” (priority 2021, published 2024)
